From the NIST ThermoML archive (doi:10.1007/s10765-008-0390-4)
± gives the expanded uncertainty stated by the source.

Tests used:
[1] = 101 kPa, Liquid
[2] = xn = mol fraction of the nth substance listed; conditions: 101 kPa, Liquid, x1 = 1

| SMILES | mass density ([1]; 288.15 K) [kg/m3] | mass density ([1]; 293.15 K) [kg/m3] | mass density ([1]; 298.15 K) [kg/m3] | mass density ([1]; 303.15 K) [kg/m3] | mass density ([1]; 308.15 K) [kg/m3] | mass density ([1]; 313.15 K) [kg/m3] | mass density ([2]; 288.15 K) [kg/m3] | mass density ([2]; 293.15 K) [kg/m3] | mass density ([2]; 298.15 K) [kg/m3] | mass density ([2]; 303.15 K) [kg/m3] | mass density ([2]; 308.15 K) [kg/m3] | mass density ([2]; 313.15 K) [kg/m3] |
| --- | --- | --- | --- | --- | --- | --- | --- | --- | --- | --- | --- | --- |
| c1ccccc1 [benzene] | 884.246 ± 0.15 | 878.918 ± 0.16 | 873.582 ± 0.16 | 868.233 ± 0.17 | 862.871 ± 0.17 | 857.498 ± 0.17 | – | – | – | – | – | – |
| ClC(Cl)Cl [trichloromethane] | 1498.08 ± 0.47 | 1488.64 ± 0.46 | 1479.15 ± 0.45 | 1469.61 ± 0.45 | 1460.03 ± 0.44 | 1450.41 ± 0.43 | – | – | – | – | – | – |

Next, values leading:

| mass density ([1]; 288.15 K) [kg/m3] | mass density ([1]; 293.15 K) [kg/m3] | mass density ([1]; 298.15 K) [kg/m3] | mass density ([1]; 303.15 K) [kg/m3] | mass density ([1]; 308.15 K) [kg/m3] | mass density ([1]; 313.15 K) [kg/m3] | mass density ([2]; 288.15 K) [kg/m3] | mass density ([2]; 293.15 K) [kg/m3] | mass density ([2]; 298.15 K) [kg/m3] | mass density ([2]; 303.15 K) [kg/m3] | mass density ([2]; 308.15 K) [kg/m3] | mass density ([2]; 313.15 K) [kg/m3] | SMILES |
| --- | --- | --- | --- | --- | --- | --- | --- | --- | --- | --- | --- | --- |
| 813.373 ± 0.24 | 809.573 ± 0.24 | 805.762 ± 0.25 | 801.923 ± 0.25 | 798.053 ± 0.25 | 794.147 ± 0.25 | – | – | – | – | – | – | CCCCO [butan-1-ol] |
| – | – | – | – | – | – | 813.373 ± 0.24 | 809.573 ± 0.24 | 805.762 ± 0.25 | 801.923 ± 0.25 | 798.053 ± 0.25 | 794.147 ± 0.25 | CCCCO [butan-1-ol] + ClC(Cl)Cl |
| – | – | – | – | – | – | 813.373 ± 0.24 | 809.573 ± 0.24 | 805.762 ± 0.25 | 801.923 ± 0.25 | 798.053 ± 0.25 | 794.147 ± 0.25 | CCCCO [butan-1-ol] + c1ccccc1 |
